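96-well plates; 48 h exposure; 5 concentrations. Endpoints by linear interpolation between flanking doses. Not reached: highest tested concentration assigned. GI50 marks 50% less growth.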 The source made the active and inactive calls. Cut-off read from the data, not from the text of the source: active = GI50 up to about 1.1 µM and inactive = higher.
Assays:
Assay in all cases: inhibition of tumour cell growth, NCI panel, 48 h
U-251 = system: U-251
MOLT-4 = system: MOLT-4
PC-3 = system: PC-3
EKVX = system: EKVX
HOP-92 = system: HOP-92
BT-549 = system: BT-549
SF-268 = system: SF-268
MDA-N = system: MDA-N
LOX IMVI = system: LOX IMVI
MDA-MB-231 = system: MDA-MB-231
COLO 205 = system: COLO 205
SK-MEL-5 = system: SK-MEL-5
OVCAR-8 = system: OVCAR-8
HCC 2998 = system: HCC 2998
K562 = system: K562
SNB-19 = system: SNB-19
NCI-H522 = system: NCI-H522
SR = system: SR
SK-MEL-2 = system: SK-MEL-2
HT-29 = system: HT-29

| Compound | GI50 (U-251) | GI50 (MOLT-4) | GI50 (PC-3) | GI50 (EKVX) | GI50 (HOP-92) | GI50 (BT-549) | GI50 (SF-268) | GI50 (MDA-N) | GI50 (LOX IMVI) | GI50 (MDA-MB-231) | GI50 (COLO 205) | GI50 (SK-MEL-5) | GI50 (OVCAR-8) | GI50 (HCC 2998) | GI50 (K562) | GI50 (SNB-19) | GI50 (NCI-H522) | GI50 (SR) | GI50 (SK-MEL-2) | GI50 (HT-29) |
| --- | --- | --- | --- | --- | --- | --- | --- | --- | --- | --- | --- | --- | --- | --- | --- | --- | --- | --- | --- | --- |
| COc1ccccc1/N=C1\SCCN1C(=S)Nc1ccc(S(=O)(=O)/N=C/N(C)C)cc1 | > 100 µM (inactive) | 22.6 µM (inactive) | > 100 µM (inactive) | 20.9 µM (inactive) | 27.9 µM (inactive) | 21.9 µM (inactive) | 22.1 µM (inactive) | 26.5 µM (inactive) | 29.9 µM (inactive) | > 100 µM (inactive) | 28.6 µM (inactive) | 15.9 µM (inactive) | 35.2 µM (inactive) | > 100 µM (inactive) | 39.6 µM (inactive) | > 100 µM (inactive) | – | – | – | – |
| Nc1nc2ccc(Sc3ccc4nc(N)[nH]c(=O)c4c3)cc2c(=O)[nH]1 | 42.5 µM (inactive) | > 100 µM (inactive) | > 100 µM (inactive) | > 100 µM (inactive) | > 100 µM (inactive) | > 100 µM (inactive) | > 100 µM (inactive) | – | – | 67.3 µM (inactive) | > 100 µM (inactive) | > 100 µM (inactive) | > 100 µM (inactive) | > 100 µM (inactive) | > 100 µM (inactive) | > 100 µM (inactive) | > 100 µM (inactive) | > 100 µM (inactive) | > 100 µM (inactive) | > 100 µM (inactive) |
| Cc1cc2nc3c(C#N)c(-c4ccccc4)cc(Nc4ccc(Cl)cc4)n3c2cc1C | 15.9 µM (inactive) | – | > 100 µM (inactive) | 8.22 µM (inactive) | – | > 100 µM (inactive) | 51.6 µM (inactive) | > 100 µM (inactive) | > 100 µM (inactive) | > 100 µM (inactive) | > 100 µM (inactive) | > 100 µM (inactive) | 48.2 µM (inactive) | > 100 µM (inactive) | – | > 100 µM (inactive) | 9.57 µM (inactive) | – | > 100 µM (inactive) | – |
| Cc1ccc(C2NC(=O)c3ccccc3N2)c(C)c1 (centres undefined) | 2.59 µM (inactive) | 0.736 µM (active) | 1.66 µM (inactive) | 8.17 µM (inactive) | 9.53 µM (inactive) | – | 10.2 µM (inactive) | 0.174 µM (active) | 4.76 µM (inactive) | 7.4 µM (inactive) | 2.11 µM (inactive) | 0.951 µM (active) | 5.28 µM (inactive) | 4.52 µM (inactive) | 0.378 µM (active) | 3.96 µM (inactive) | 1.88 µM (inactive) | 0.807 µM (active) | 1.77 µM (inactive) | 2.19 µM (inactive) |
| CC(C)Oc1c(-c2ccc(F)cc2)c(O)c2c3c1oc(=O)n3C=CC2C (centres undefined) | 15.5 µM (inactive) | 6.07 µM (inactive) | 7.05 µM (inactive) | 14.3 µM (inactive) | 13.9 µM (inactive) | 14 µM (inactive) | 17.3 µM (inactive) | 12.4 µM (inactive) | 14.5 µM (inactive) | 14.4 µM (inactive) | 16 µM (inactive) | 10.8 µM (inactive) | 15.8 µM (inactive) | 13.4 µM (inactive) | 6.59 µM (inactive) | 15.8 µM (inactive) | 12.1 µM (inactive) | – | 17.8 µM (inactive) | 16.6 µM (inactive) |
| COc1cc(Br)c(CC2C3=C(CCN2C(=O)C2CCC2)CC(=O)CC3)cc1O (centres undefined) | 42.7 µM (inactive) | 26.1 µM (inactive) | 30.7 µM (inactive) | 30.2 µM (inactive) | 20.4 µM (inactive) | – | 31.3 µM (inactive) | 19.6 µM (inactive) | 47.8 µM (inactive) | 26.5 µM (inactive) | 19.5 µM (inactive) | 28.6 µM (inactive) | 38 µM (inactive) | 26.7 µM (inactive) | 21.6 µM (inactive) | 51.2 µM (inactive) | 14.5 µM (inactive) | 38.4 µM (inactive) | 36.1 µM (inactive) | 24.9 µM (inactive) |
| Clc1ccc(-c2c3nc(c(-c4ccc(Cl)cc4)c4ccc([nH]4)c(-c4ccc(Cl)cc4)c4nc(c(-c5ccc(Cl)cc5)c5ccc2[nH]5)C=C4)C=C3)cc1 | > 100 µM (inactive) | > 100 µM (inactive) | > 100 µM (inactive) | > 100 µM (inactive) | > 100 µM (inactive) | > 100 µM (inactive) | > 100 µM (inactive) | – | > 100 µM (inactive) | > 100 µM (inactive) | > 100 µM (inactive) | > 100 µM (inactive) | > 100 µM (inactive) | > 100 µM (inactive) | > 100 µM (inactive) | > 100 µM (inactive) | > 100 µM (inactive) | > 100 µM (inactive) | > 100 µM (inactive) | > 100 µM (inactive) |
| CC(=O)O[C@@H]1[C@H]2O[C@H]2[C@H]2O[C@@]2(COC(=O)c2ccccc2)[C@H]1OC(C)=O | > 100 µM (inactive) | 32.1 µM (inactive) | > 100 µM (inactive) | > 100 µM (inactive) | > 100 µM (inactive) | > 100 µM (inactive) | > 100 µM (inactive) | > 100 µM (inactive) | > 100 µM (inactive) | > 100 µM (inactive) | > 100 µM (inactive) | > 100 µM (inactive) | 71.9 µM (inactive) | > 100 µM (inactive) | > 100 µM (inactive) | > 100 µM (inactive) | > 100 µM (inactive) | – | > 100 µM (inactive) | > 100 µM (inactive) |
| C=C(C)[C@@H]1CCC2=C[C@H](C/C(C)=C\C3=CC(C)=C(O3)[C@H]1O)OC2=O | 49.8 µM (inactive) | > 100 µM (inactive) | 73.8 µM (inactive) | > 100 µM (inactive) | 56.4 µM (inactive) | > 100 µM (inactive) | > 100 µM (inactive) | – | > 100 µM (inactive) | 25.8 µM (inactive) | > 100 µM (inactive) | > 100 µM (inactive) | 73.8 µM (inactive) | > 100 µM (inactive) | > 100 µM (inactive) | > 100 µM (inactive) | 68.5 µM (inactive) | > 100 µM (inactive) | > 100 µM (inactive) | – |
| C[C@@H](NC(=O)OC1C=CC2(CC1)C(=O)N(C)c1ccccc12)c1cccc2ccccc12 (some centres undefined) | > 25 µM (inactive) | 5.93 µM (inactive) | > 25 µM (inactive) | 12 µM (inactive) | > 25 µM (inactive) | – | 7.36 µM (inactive) | 15.5 µM (inactive) | 19.7 µM (inactive) | > 25 µM (inactive) | 15.1 µM (inactive) | 5.32 µM (inactive) | > 25 µM (inactive) | > 25 µM (inactive) | 15.1 µM (inactive) | > 25 µM (inactive) | 5.24 µM (inactive) | 10.2 µM (inactive) | > 25 µM (inactive) | > 25 µM (inactive) |
| Cc1oc2c(c1C)S(=O)(=O)C(C#N)=C(N(C)C)N2 | > 100 µM (inactive) | > 100 µM (inactive) | > 100 µM (inactive) | > 100 µM (inactive) | > 100 µM (inactive) | > 100 µM (inactive) | > 100 µM (inactive) | > 100 µM (inactive) | > 100 µM (inactive) | > 100 µM (inactive) | – | > 100 µM (inactive) | > 100 µM (inactive) | > 100 µM (inactive) | > 100 µM (inactive) | > 100 µM (inactive) | > 100 µM (inactive) | – | > 100 µM (inactive) | > 100 µM (inactive) |

— ChEMBL document CHEMBL1201862, “PubChem BioAssay data set” (2004)
